# Results reported in PubChem BioAssay (NCI).
#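 Test compounds were applied to cells in 96-well plates for 48 hours at 5 doses. GI50 is the concentration that inhibits growth by half. The concentration for full growth arrest is given as TGI.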
# Assays:
# Test in all cases: NCI anticancer screen, dose series, 48 h
# U251 CNS = tested on: U251 CNS
# MCF7 breast = tested on: MCF7 breast
# MDA-MB-435 = tested on: MDA-MB-435
# SK-MEL-5 melanoma = tested on: SK-MEL-5 melanoma
# MALME-3M melanoma = tested on: MALME-3M melanoma
# HCT-116 colon = tested on: HCT-116 colon
# SK-MEL-28 melanoma = tested on: SK-MEL-28 melanoma
# A549 NSCLC = tested on: A549 NSCLC
# MOLT-4 leukemia = tested on: MOLT-4 leukemia
# DU-145 prostate = tested on: DU-145 prostate
# IGROV1 ovarian = tested on: IGROV1 ovarian
# SF-295 CNS = tested on: SF-295 CNS
# M14 melanoma = tested on: M14 melanoma
# CAKI-1 renal = tested on: CAKI-1 renal
# HL-60(TB) leukemia = tested on: HL-60(TB) leukemia
# SR leukemia = tested on: SR leukemia
# OVCAR-8 ovarian = tested on: OVCAR-8 ovarian
# HS 578T breast = tested on: HS 578T breast
# SN12C renal = tested on: SN12C renal
# OVCAR-3 ovarian = tested on: OVCAR-3 ovarian
# LOX IMVI melanoma = tested on: LOX IMVI melanoma
# COLO 205 colon = tested on: COLO 205 colon
# HT29 colon = tested on: HT29 colon
# HOP-92 NSCLC = tested on: HOP-92 NSCLC
# RPMI-8226 leukemia = tested on: RPMI-8226 leukemia
# SF-268 CNS = tested on: SF-268 CNS
# MDA-MB-231 breast = tested on: MDA-MB-231 breast
# 786-0 renal = tested on: 786-0 renal
# HCT-15 colon = tested on: HCT-15 colon
# PC-3 prostate = tested on: PC-3 prostate
# KM12 colon = tested on: KM12 colon
# UO-31 renal = tested on: UO-31 renal
# SNB-19 CNS = tested on: SNB-19 CNS
# SK-OV-3 ovarian = tested on: SK-OV-3 ovarian
# UACC-257 melanoma = tested on: UACC-257 melanoma
# RXF 393 renal = tested on: RXF 393 renal
# EKVX NSCLC = tested on: EKVX NSCLC
# OVCAR-5 ovarian = tested on: OVCAR-5 ovarian
# ACHN renal = tested on: ACHN renal
# NCI-H522 lung = tested on: NCI-H522 lung
# TK-10 renal = tested on: TK-10 renal
# HOP-62 NSCLC = tested on: HOP-62 NSCLC
# NCI-H226 lung = tested on: NCI-H226 lung
# BT-549 breast = tested on: BT-549 breast
# SF-539 CNS = tested on: SF-539 CNS
# SK-MEL-2 melanoma = tested on: SK-MEL-2 melanoma
# SNB-75 CNS = tested on: SNB-75 CNS
# OVCAR-4 ovarian = tested on: OVCAR-4 ovarian
# K-562 leukemia = tested on: K-562 leukemia
# T-47D breast = tested on: T-47D breast
# CCRF-CEM leukemia = tested on: CCRF-CEM leukemia
# NCI-H460 lung = tested on: NCI-H460 lung
# NCI/ADR-RES ovarian = tested on: NCI/ADR-RES ovarian
# A498 renal = tested on: A498 renal
# UACC-62 melanoma = tested on: UACC-62 melanoma
# NCI-H23 lung = tested on: NCI-H23 lung
# HCC-2998 colon = tested on: HCC-2998 colon
# SW-620 colon = tested on: SW-620 colon
structure (smiles),measurement,setting,value
OC1CCN(CCCOc2c3ccc(Cl)cc3nc3c2oc2ccccc23)CC1,GI50,U251 CNS,1.09 µM
same,TGI,U251 CNS,7.4 µM
same,GI50,MCF7 breast,0.968 µM
same,TGI,MCF7 breast,4.3 µM
same,GI50,MDA-MB-435,1.23 µM
same,TGI,MDA-MB-435,2.57 µM
same,GI50,SK-MEL-5 melanoma,1.79 µM
same,TGI,SK-MEL-5 melanoma,3.25 µM
same,GI50,MALME-3M melanoma,1.49 µM
same,TGI,MALME-3M melanoma,3.1 µM
same,GI50,HCT-116 colon,0.39 µM
same,TGI,HCT-116 colon,2.11 µM
same,GI50,SK-MEL-28 melanoma,1.69 µM
same,TGI,SK-MEL-28 melanoma,3.17 µM
same,GI50,A549 NSCLC,1.23 µM
same,TGI,A549 NSCLC,23.2 µM
same,GI50,MOLT-4 leukemia,0.391 µM
same,TGI,MOLT-4 leukemia,3.2 µM
same,GI50,DU-145 prostate,1.57 µM
same,TGI,DU-145 prostate,> 100 µM
same,GI50,IGROV1 ovarian,1.97 µM
same,TGI,IGROV1 ovarian,12.5 µM
same,GI50,SF-295 CNS,2.08 µM
same,TGI,SF-295 CNS,11.8 µM
same,GI50,M14 melanoma,1.34 µM
same,TGI,M14 melanoma,3.09 µM
same,GI50,CAKI-1 renal,0.525 µM
same,TGI,CAKI-1 renal,3.35 µM
same,GI50,HL-60(TB) leukemia,1.58 µM
same,TGI,HL-60(TB) leukemia,4.8 µM
same,GI50,SR leukemia,0.458 µM
same,TGI,SR leukemia,3.23 µM
same,GI50,OVCAR-8 ovarian,1.13 µM
same,TGI,OVCAR-8 ovarian,13.5 µM
same,GI50,HS 578T breast,2.17 µM
same,TGI,HS 578T breast,8.01 µM
same,GI50,SN12C renal,0.839 µM
same,TGI,SN12C renal,> 100 µM
same,GI50,OVCAR-3 ovarian,2.2 µM
same,TGI,OVCAR-3 ovarian,> 100 µM
same,GI50,LOX IMVI melanoma,0.343 µM
same,TGI,LOX IMVI melanoma,1.45 µM
same,GI50,COLO 205 colon,0.661 µM
same,TGI,COLO 205 colon,2.15 µM
same,GI50,HT29 colon,0.61 µM
same,TGI,HT29 colon,2.27 µM
same,GI50,HOP-92 NSCLC,1.04 µM
same,TGI,HOP-92 NSCLC,3.79 µM
same,GI50,RPMI-8226 leukemia,1.59 µM
same,TGI,RPMI-8226 leukemia,4.8 µM
same,GI50,SF-268 CNS,1.49 µM
same,TGI,SF-268 CNS,> 100 µM
same,GI50,MDA-MB-231 breast,1.57 µM
same,TGI,MDA-MB-231 breast,6.13 µM
same,GI50,786-0 renal,1.3 µM
same,TGI,786-0 renal,4.86 µM
same,GI50,HCT-15 colon,0.78 µM
same,TGI,HCT-15 colon,> 100 µM
same,GI50,PC-3 prostate,1.49 µM
same,TGI,PC-3 prostate,4.07 µM
same,GI50,KM12 colon,1.48 µM
same,TGI,KM12 colon,> 100 µM
same,GI50,UO-31 renal,0.517 µM
same,TGI,UO-31 renal,3.1 µM
same,GI50,SNB-19 CNS,2.28 µM
same,TGI,SNB-19 CNS,32.6 µM
same,GI50,SK-OV-3 ovarian,2.42 µM
same,TGI,SK-OV-3 ovarian,10.5 µM
same,GI50,UACC-257 melanoma,1.72 µM
same,TGI,UACC-257 melanoma,3.49 µM
same,GI50,RXF 393 renal,1.28 µM
same,TGI,RXF 393 renal,3.36 µM
same,GI50,EKVX NSCLC,2.39 µM
same,TGI,EKVX NSCLC,8.46 µM
same,GI50,OVCAR-5 ovarian,1.97 µM
same,TGI,OVCAR-5 ovarian,6.85 µM
same,GI50,ACHN renal,0.491 µM
same,TGI,ACHN renal,11.7 µM
same,GI50,NCI-H522 lung,1.28 µM
same,TGI,NCI-H522 lung,3.2 µM
same,GI50,TK-10 renal,2.78 µM
same,TGI,TK-10 renal,7.65 µM
same,GI50,HOP-62 NSCLC,1.86 µM
same,TGI,HOP-62 NSCLC,11.4 µM
same,GI50,NCI-H226 lung,1.99 µM
same,TGI,NCI-H226 lung,5.63 µM
same,GI50,BT-549 breast,2.49 µM
same,TGI,BT-549 breast,7.24 µM
same,GI50,SF-539 CNS,1.32 µM
same,TGI,SF-539 CNS,2.64 µM
same,GI50,SK-MEL-2 melanoma,1.76 µM
same,TGI,SK-MEL-2 melanoma,3.34 µM
same,GI50,SNB-75 CNS,1.33 µM
same,TGI,SNB-75 CNS,2.7 µM
same,GI50,OVCAR-4 ovarian,1.39 µM
same,TGI,OVCAR-4 ovarian,5.09 µM
CCCn1cnc2c(c1=N)C(c1ccc(Cl)cc1)c1sc3c(C)cccc3c1O2 (centres undefined),GI50,U251 CNS,0.432 µM
same,TGI,U251 CNS,11.3 µM
same,GI50,MCF7 breast,0.339 µM
same,TGI,MCF7 breast,10.8 µM
same,GI50,SK-MEL-5 melanoma,0.43 µM
same,TGI,SK-MEL-5 melanoma,3.46 µM
same,GI50,MALME-3M melanoma,10.2 µM
same,TGI,MALME-3M melanoma,25.1 µM
same,GI50,HCT-116 colon,0.41 µM
same,TGI,HCT-116 colon,2.15 µM
same,GI50,K-562 leukemia,0.283 µM
same,TGI,K-562 leukemia,4.2 µM
same,GI50,SK-MEL-28 melanoma,2.34 µM
same,TGI,SK-MEL-28 melanoma,21.9 µM
same,GI50,A549 NSCLC,0.53 µM
same,TGI,A549 NSCLC,8.74 µM
same,GI50,T-47D breast,0.522 µM
same,TGI,T-47D breast,24.3 µM
same,GI50,MOLT-4 leukemia,0.498 µM
same,TGI,MOLT-4 leukemia,7.7 µM
same,GI50,DU-145 prostate,0.444 µM
same,TGI,DU-145 prostate,5.44 µM
same,GI50,IGROV1 ovarian,0.464 µM
same,TGI,IGROV1 ovarian,11.8 µM
same,GI50,SF-295 CNS,0.374 µM
same,TGI,SF-295 CNS,10.5 µM
same,GI50,CCRF-CEM leukemia,0.38 µM
same,GI50,M14 melanoma,0.314 µM
same,TGI,M14 melanoma,3.86 µM
same,GI50,NCI-H460 lung,0.362 µM
same,TGI,NCI-H460 lung,1.9 µM
same,GI50,CAKI-1 renal,0.192 µM
same,TGI,CAKI-1 renal,14.9 µM
same,GI50,HL-60(TB) leukemia,0.346 µM
same,TGI,HL-60(TB) leukemia,1.69 µM
same,GI50,SR leukemia,0.377 µM
same,TGI,SR leukemia,5.99 µM
same,GI50,NCI/ADR-RES ovarian,0.316 µM
same,TGI,NCI/ADR-RES ovarian,2.44 µM
same,GI50,A498 renal,0.304 µM
same,TGI,A498 renal,1.17 µM
same,GI50,OVCAR-8 ovarian,0.522 µM
same,TGI,OVCAR-8 ovarian,11.4 µM
same,GI50,HS 578T breast,0.352 µM
same,TGI,HS 578T breast,5.47 µM
same,GI50,SN12C renal,0.879 µM
same,TGI,SN12C renal,13.3 µM
same,GI50,OVCAR-3 ovarian,0.283 µM
same,TGI,OVCAR-3 ovarian,1.05 µM
same,GI50,LOX IMVI melanoma,0.701 µM
same,TGI,LOX IMVI melanoma,6.73 µM
same,GI50,COLO 205 colon,0.386 µM
same,TGI,COLO 205 colon,1.9 µM
same,GI50,HT29 colon,0.402 µM
same,TGI,HT29 colon,5.11 µM
same,GI50,HOP-92 NSCLC,1.98 µM
same,TGI,HOP-92 NSCLC,14.5 µM
same,GI50,RPMI-8226 leukemia,0.381 µM
same,TGI,RPMI-8226 leukemia,3.72 µM
same,GI50,SF-268 CNS,0.953 µM
same,TGI,SF-268 CNS,11.1 µM
same,GI50,MDA-MB-231 breast,0.774 µM
same,TGI,MDA-MB-231 breast,13.2 µM
same,GI50,786-0 renal,0.558 µM
same,TGI,786-0 renal,11.2 µM
same,GI50,UACC-62 melanoma,0.49 µM
same,TGI,UACC-62 melanoma,15 µM
same,GI50,HCT-15 colon,0.409 µM
same,TGI,HCT-15 colon,4.93 µM
same,GI50,PC-3 prostate,0.454 µM
same,TGI,PC-3 prostate,14.3 µM
same,GI50,KM12 colon,0.443 µM
same,TGI,KM12 colon,11.2 µM
same,GI50,UO-31 renal,0.612 µM
same,TGI,UO-31 renal,18.2 µM
same,GI50,NCI-H23 lung,0.587 µM
same,TGI,NCI-H23 lung,13.1 µM
same,GI50,SNB-19 CNS,0.527 µM
same,TGI,SNB-19 CNS,17.6 µM
same,GI50,SK-OV-3 ovarian,0.68 µM
same,TGI,SK-OV-3 ovarian,19.7 µM
same,GI50,UACC-257 melanoma,8.9 µM
same,TGI,UACC-257 melanoma,29 µM
same,GI50,RXF 393 renal,0.217 µM
same,TGI,RXF 393 renal,0.6 µM
same,GI50,EKVX NSCLC,0.572 µM
same,TGI,EKVX NSCLC,19.4 µM
same,GI50,OVCAR-5 ovarian,0.674 µM
same,TGI,OVCAR-5 ovarian,13.1 µM
same,GI50,ACHN renal,0.791 µM
same,TGI,ACHN renal,14.9 µM
same,GI50,NCI-H522 lung,0.387 µM
same,TGI,NCI-H522 lung,5.7 µM
same,GI50,TK-10 renal,5.69 µM
same,TGI,TK-10 renal,24 µM
same,GI50,HOP-62 NSCLC,0.477 µM
same,TGI,HOP-62 NSCLC,10.7 µM
same,GI50,NCI-H226 lung,0.431 µM
same,TGI,NCI-H226 lung,4.08 µM
same,GI50,HCC-2998 colon,0.732 µM
same,TGI,HCC-2998 colon,6.1 µM
same,GI50,BT-549 breast,1.49 µM
same,TGI,BT-549 breast,6.89 µM
same,GI50,SF-539 CNS,0.316 µM
same,TGI,SF-539 CNS,1.11 µM
same,GI50,SW-620 colon,0.402 µM
same,TGI,SW-620 colon,11.7 µM
same,GI50,SK-MEL-2 melanoma,0.726 µM
same,TGI,SK-MEL-2 melanoma,16 µM
same,GI50,SNB-75 CNS,0.237 µM
same,TGI,SNB-75 CNS,2.66 µM
same,GI50,OVCAR-4 ovarian,1.57 µM
same,TGI,OVCAR-4 ovarian,17.8 µM
